Test results taken from US11510911B2 (AJOU UNIVERSITY INDUSTRY—ACADEMIC COOPERATION FOUNDATION, priority 2017, dated 2022).

How the values were obtained:
[1] = system: Huh7 cells; assay: Cell viability (WST-1 assay), Huh7 cells; type: cell-based, Human
Description: (§1) Human liver cancer cells of Hep3B, Huh7, HepG2 and PLC/PRF5 were cultured in DMEM supplemented with 10% FBS, 100 U/ml penicillin and 100 μg/ml streptomycin.
(§2) A lentiviral construct expressing STAT1 shRNA, p65 shRNA and LCN2 shRNA was purchased from Sigma-Aldrich. Wild-type SULF2, SULF2-N491K, wild-type ERC1, ERC1-H721Q, wild-type NTRK3, NTRK3-N522K, wild-type SHC1 and SHC1-SHC1-P55 cDNA constructs were cloned into MCS-EF1-Puro (System Biosciences, Mountain), the lentiviral vectors for cDNA expression. All lentiviral vectors were transfected into 293 TN cells (System Biosciences) using the Lipofectamine 3000 transfection reagent (Invitrogen, Waltham, Mass., USA). Two days after lentiviral plasmid transfection, particles were collected and used to infect HCC cells. The HDD cells infected with lentivirus were selected using puromycin for 1 week.
(§3) For cell proliferation analysis, 5×10^3 cells were divided into 96-well plates and cultured in DMEM containing various concentrations of anti-cancer drugs and 5% FBS for 48 hours. Cell viability was measured through WST-1 assay (Roche, Gangnam-gu, Seoul, Korea) and four repetitions of each experiment were performed at least 3 times. Cell migration analysis was performed in a 24-well Boyden chamber (8 μm pore size; Coastal; Corning Life Sciences, Lowell, Mass.), 1×10^5 cells were suspended in serum-free 0.2 ml DMEM and added to the upper chamber inlet, and the lower chamber was filled with 0.6 ml DMEM/10% fetal bovine serum. After 6 hours, the cells on the bottom of the membrane were fixed, stained and counted at ×200 magnification with four microscopes.

[2] = system: HepG2 cells; assay: Cell viability (WST-1 assay), HepG2 cells; type: cell-based; conditions: Homo sapiens
Description: as §1, §2, §3

[3] = system: Hep3B cells; assay: Cell viability / proliferation (WST-1 assay), Hep3B cells expressing vector, SULF2-WT or SULF2-N491K; type: cell-based, Human; conditions: for cell proliferation: 0.01-10 μM
Description: as §1, §2
Then, in order to identify whether or not the SULF2 mutation changed drug susceptibility, an overexpression system for wild-type SULF2 and SULF2-N491K mutants in Hep3B cells that rarely expressed endogenous SULF2 was established (Lai J P et al., Hepatology 47: 1211-22, 2008).
as §3

[4] = system: LCN2 mRNA; assay: LCN2 mRNA expression by qRT-PCR in Hep3B vector, SULF2-WT and SULF2-N491K cells; type: cell-based, Human
Description: (§4) Each cell was collected using an RNeasy kit (Qiagen, Venlo, Netherlands) and total RNA was isolated. The mRNA was reverse-transcribed into cDNA using a PrimeScript RT kit (Takara, Shiga, Japan), and then PCR was conducted using the CFX96 Real-Time PCR Detection System (Bio-Rad Laboratories, Hercules, Calif., USA) equipped with SsoAdvanced Universal Supermixes (Bio-Rad). The analysis of each sample was run at least three times for each experiment, and the data for the number was reported in a relative quantity: Mean value (standard deviation) of 2^−ΔΔCT±S.D.

[5] = system: amphiregulin mRNA; assay: Amphiregulin mRNA level by qRT-PCR in Hep3B vector, SULF2-WT and SULF2-N491K cells; type: cell-based, Human; conditions: 2 μM sorafenib, 72 hours
Description: as §4

[6] = system: SULF2 mRNA; assay: SULF2 mRNA expression by qRT-PCR in HepG2 and Huh7 cells; type: cell-based, Human; conditions: sorafenib up to 10 μM for 1, 2, 4 and 12 weeks
Description: as §4

[7] = system: Hep3B-SR, SULF2-WT-SR, HepG2-SR and Huh7-SR cells; assay: Cell viability of sorafenib-resistant (SR) liver cancer cells; type: cell-based, Human; conditions: LCN2 siRNA 24 hours, then 5 μM sorafenib 48 hours
Description: as §3
After culture for several months, the sorafenib-resistant (SR) cell lines, Vector-SR, SULF2-WT-SR and SULF2-N491K-SR were obtained.
Thus, control siRNA and siRNA for human LCN2 were purchased from Santa Cruz Biotechnology, and each cell was transfected with siRNA using a transfection reagent (Santa Cruz) according to the manufacturer's instructions.

[8] = system: Hep3B cells; assay: Transwell (Boyden chamber) cell migration assay, Hep3B cells; type: cell-based, Human
Description: as §3

[9] = system: EGFR; assay: Western blotting of EGFR downstream signaling after amphiregulin treatment; type: cell-based, Human; conditions: SULF2-WT cells, amphiregulin 50 ng/ml
Description: In order to prepare total cell lysate, cells were lysed in a high-salt-content lysis buffer (20 mM Tris-HCl [pH 8.0], 1% Triton X-100, 2 mM EDTA and 1 mM phenylmethylsulfonyl fluoride), incubated on ice for 20 minutes, and centrifuged for 20 minutes to remove cell debris. A total of 20 μg of total cell lysate was used for SDS-polyacrylamide gel electrophoresis, and proteins were transferred to a nitrocellulose membrane and incubated overnight with each antibody at 4° C. The membrane was then incubated at room temperature for 1 hour with a peroxidase-conjugated secondary antibody (PIERCE, Rockford, Ill., USA), and signals were detected using a chemiluminescence detection kit (PIERCE).
Thus, in order to elucidate the mechanism by which sorafenib-mediated EGFR activation is differentially regulated between SULF2-WT and SULF2-N491K, the effect of exogenous stimulation of EGFR by treatment with recombinant human amphiregulin (rhAR) on three types of cells was compared.

Molecule: CN[C@@H](C)C(=O)N[C@H](C(=O)N1CC[C@H]2CCN(CCc3ccccc3)C[C@H]21)C1CCCCC1 [LBW242]
- IC50 ([1]; Huh7 cells expressing SHC1-P5S): 2.26 µM
- IC50 ([1]; Huh7 cells expressing SHC1-WT): 4.26 µM

Molecule: CNC(=O)c1cc(Oc2ccc(NC(=O)Nc3ccc(Cl)c(C(F)(F)F)c3)cc2)ccn1 [Sorafenib]
- IC50 ([1]; Homo sapiens, Huh-7, 48 h, Huh7 cells, NT shRNA, 48 hours): 10.2 µM
- IC50 ([1]; Homo sapiens, Huh-7, 48 h, Huh7 cells, SULF2 knockdown (SULF2 shRNA), 48 hours): 6.17 µM
- IC50 ([1]; Homo sapiens, Huh-7, Huh7 cells expressing NTRK3-N522K): 5.8 µM
- IC50 ([1]; Homo sapiens, Huh-7, Huh7 cells expressing NTRK3-WT): 7.64 µM
- IC50 ([1]; Homo sapiens, Huh-7, Huh7 cells, sorafenib in combination with 200 μM OKN-007): 5.06 µM
- IC50 ([2]; HepG2, HepG2 cells, NT shRNA): 4.97 µM
- IC50 ([2]; HepG2, HepG2 cells, SULF2 knockdown (SULF2 shRNA)): 2.38 µM
- IC50 ([2]; HepG2, HepG2 cells, sorafenib in combination with OKN-007): 1.76 µM
- susceptibility to sorafenib with OKN-007 treatment ([3]; Hep3B vector and SULF2-N491K cells, 48 hours): did not change
- IC50 ([3]; Hep3B-SULF2-WT cells): 7.51 µM
- IC50 ([3]; Homo sapiens, Hep3B, 48 h, Hep3B cells expressing wild-type SULF2, sorafenib in combination with OKN-007, 48 hours): 3.17 µM
- IC50 ([3]; Homo sapiens, Hep3B, 48 h, SULF2-WT cells with knockdown of LCN2 by shRNA): 3.95 µM
- IC50 ([3]; Homo sapiens, Hep3B, Hep3B cells expressing SULF2-N491K): 3.54 µM
- IC50 ([3]; Homo sapiens, Hep3B, Hep3B-SULF2-WT cells): 7.51 µM
- IC50 ([3]; Homo sapiens, Hep3B, Hep3B-vector cells): 3.37 µM
- LCN2 mRNA expression ([4]; SULF2-WT cells, 2 μM sorafenib, 72 hours): significantly induced
- LCN2 mRNA expression ([4]; vector and SULF2-N491K cells, 2 μM sorafenib, 72 hours): induced only a small amount
- amphiregulin expression [5]: significantly increased
- SULF2 mRNA expression [6]: significantly increased in a time-dependent manner
- sorafenib susceptibility after LCN2 knockdown [7]: restoration of sorafenib susceptibility

Molecule: CCN(CC)CCCCNc1ncc2cc(-c3cc(OC)cc(OC)c3)c(NC(=O)NC(C)(C)C)nc2n1 [PD173074]
- cell proliferation ([3]; SULF2-WT cells, 48 hours): did not inhibit
- cell proliferation ([3]; vector and SULF2-N491K cells, 48 hours): inhibited cell proliferation
- cell migration ([8]; vector, SULF2-WT or SULF2-N491K cells treated with PD173074): inhibition of great migration was not found

Molecule: N#CC(=C(/N)Sc1ccccc1N)/C(C#N)=C(/N)Sc1ccccc1N [MEK inhibitor]
- LCN2 expression ([4]; vector or SULF2-N491K cells, U0126 10 μM, 48 hours): did not inhibit

Molecule: Nc1ncnc2c1c(-c1cccc(OCc3ccccc3)c1)cn2[C@H]1C[C@@H](CN2CCC2)C1 [AEW541]
- IC50 ([2]; HepG2, HepG2 cells expressing ERC1-H721Q): 2.63 µM
- IC50 ([2]; HepG2, HepG2 cells expressing ERC1-WT): 4.25 µM

Molecule: COc1cc2ncnc(Nc3ccc(F)c(Cl)c3)c2cc1OCCCN1CCOCC1 [gefitinib]
- cell growth ([3]; SULF2-WT cells compared with vector and SULF2-N491K cells, 48 hours): significantly inhibited
- LCN2 mRNA expression ([4]; SULF2-WT cells, 48 hours, OKN-007 200 μM, gefitinib 5 μM): significantly inhibited
- cell migration ([8]; SULF2-WT cells compared with vector and SULF2-N491K cells): significantly inhibited

B1: amphiregulin: recombinant human amphiregulin, the EGFR ligand, from R & D systems (protein, UniProt P15514 101-187, looked up)
Amphiregulin: SVRVEQVVKPPQNKTESENTSDKPKRKKKGGKNGKNRRNRKKKNPCNAEFQNFCIHGECKYIEHLEAVTCKCQQEYFGERCGEKSMK
- activation of EGFR and downstream signaling pathways including STAT1 and ERK [9]: elevated activation
- p65 and LCN2 protein levels [9]: significantly increased
